Legend:
Experiment in all cases: relative viability (nuclei count vs DMSO), 5 days (fraction); higher = more cells survive
CX-5461 + Navitoclax = compound: Cc1cnc(CNC(=O)c2c(=O)c3ccc(N4CCCN(C)CC4)nc3n3c2sc2ccccc23)cn1 [CX-5461] + CC1(C)CCC(c2ccc(Cl)cc2)=C(CN2CCN(c3ccc(C(=O)NS(=O)(=O)c4ccc(N[C@H](CCN5CCOCC5)CSc5ccccc5)c(S(=O)(=O)C(F)(F)F)c4)cc3)CC2)C1 [Navitoclax] (partner 0.5 µM)
In short: (§1)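 Relative viability was taken as the ratio of nuclei in treated wells to nuclei in vehicle wells. Lung cancer cell lines in 1536-well plates received compounds by pin tool one day after seeding, either one drug alone or a fixed anchor-drug dose plus five library-drug doses (not always all listed) in √10 steps. Nuclei were counted on 4× images after 5 days of treatment, and values are medians of duplicate plates.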

CX-5461 + Foretinib = compound: Cc1cnc(CNC(=O)c2c(=O)c3ccc(N4CCCN(C)CC4)nc3n3c2sc2ccccc23)cn1 [CX-5461] + COc1cc2c(Oc3ccc(NC(=O)C4(C(=O)Nc5ccc(F)cc5)CC4)cc3F)ccnc2cc1OCCCN1CCOCC1 [Foretinib] (partner 0.25 µM)
In short: as §1

IMD-0354 = compound: O=C(Nc1cc(C(F)(F)F)cc(C(F)(F)F)c1)c1cc(Cl)ccc1O [IMD-0354]
In short: (§2)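 In 1536-well plates, lung cancer cell lines rested overnight at 37 °C before five library-drug doses (not always all listed), √10 apart, were pinned onto vehicle-anchored plates. Nuclei were counted with MetaXpress from 4× Hoechst images taken after 5 days without medium change. Viability compares treated-well with vehicle-well nuclei as a median over plates, and plates needed control CV below 25% plus at least one doubling to pass.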

CX-5461 = compound: Cc1cnc(CNC(=O)c2c(=O)c3ccc(N4CCCN(C)CC4)nc3n3c2sc2ccccc23)cn1 [CX-5461]
In short: as §2

Cell Line	relative viability (CX-5461 + Navitoclax; first compound 0.01 µM)	relative viability (CX-5461 + Navitoclax; first compound 0.03162 µM)	relative viability (CX-5461 + Navitoclax; first compound 0.1 µM)	relative viability (CX-5461 + Navitoclax; first compound 0.3162 µM)	relative viability (CX-5461 + Navitoclax; first compound 1 µM)	relative viability (CX-5461 + Foretinib; first compound 0.01 µM)	relative viability (CX-5461 + Foretinib; first compound 0.03162 µM)	relative viability (CX-5461 + Foretinib; first compound 0.1 µM)	relative viability (CX-5461 + Foretinib; first compound 1 µM)	relative viability (IMD-0354; 0.04 µM)	relative viability (IMD-0354; 0.1265 µM)	relative viability (IMD-0354; 0.4 µM)	relative viability (IMD-0354; 1.265 µM)	relative viability (IMD-0354; 4 µM)	relative viability (CX-5461; 0.01 µM)	relative viability (CX-5461; 0.03162 µM)	relative viability (CX-5461; 0.1 µM)	relative viability (CX-5461; 0.3162 µM)	relative viability (CX-5461; 1 µM)	relative viability (CX-5461 + Foretinib; first compound 0.3162 µM)
LOU-NH91	0.7	0.694	0.735	0.472	0.575	1.02	1.02	0.935	0.942	1.1	1	0.353	0.252	0.273	1.07	1.01	0.997	0.574	0.845	–
NCI-H3122	0.966	1.04	1.03	1.01	0.97	0.915	0.906	0.941	0.974	1.12	1.06	0.723	0.313	0.151	0.977	1.02	0.965	1.01	0.831	0.929
NCI-H460	1.04	1.02	0.273	1.09	0.0167	0.912	0.955	–	0.0917	1.02	1.01	0.379	0.106	0.0241	1.05	0.97	0.725	0.93	0.128	1.04
NCI-H1944	1.06	1.09	1.01	–	1.02	0.849	0.913	0.897	0.822	0.866	0.981	0.653	0.74	0.156	1	1.14	0.994	0.358	0.318	0.47
NCI-H1734	0.979	0.896	0.887	0.728	0.761	0.88	0.878	0.941	0.758	1.09	0.969	0.731	0.306	0.142	1.02	1.05	1	0.694	0.579	0.634
LXF-289	0.94	0.985	0.995	0.875	0.957	0.998	1.02	0.974	0.902	1.02	1.05	0.86	0.337	0.207	0.988	1.01	1.06	0.87	0.745	0.402
H3255	0.626	0.484	0.533	0.273	0.397	0.907	0.854	0.818	0.835	0.911	1.01	0.621	0.601	0.362	1.02	0.94	0.921	0.609	0.909	0.558
201T	1.18	1.22	1.21	1.18	1.19	1.06	1.05	1.04	0.74	1.1	1.15	0.563	0.725	0.324	0.985	1	0.986	0.985	0.936	1.08
NCI-H2126	0.873	0.863	0.896	0.815	0.804	1.28	1.3	1.16	0.838	1.03	0.981	0.848	0.484	0.387	1	1.06	1.03	0.991	0.972	1.39
HOP-62	0.908	1.16	1.21	–	1.02	1.09	1.14	1.08	1.04	1.03	1.08	0.639	0.38	0.13	1.02	1.05	1.08	0.893	0.899	1.01
CAL-12T	1.18	1.25	–	1.05	0.573	1.03	1.08	0.966	0.741	1.07	0.922	0.545	0.251	0.162	1.02	0.994	0.947	0.936	0.662	0.945
NCI-H520	1.09	0.891	1.05	1.05	0.793	0.748	0.677	0.721	0.725	1.05	0.93	0.545	0.589	0.226	1.14	1.02	1.09	0.666	0.578	0.503
NCI-H1755	0.979	0.992	1.01	0.997	0.883	0.934	0.905	0.889	0.898	0.989	1.02	0.76	0.454	0.26	1.09	1.03	1.01	1.01	0.901	0.913
NCI-H2023	1.01	1.03	–	0.908	0.152	0.954	0.71	0.733	0.108	1.11	0.986	0.573	0.128	0.0998	1	0.903	–	0.648	0.0929	0.552
NCI-H2009	1.18	1.19	1.08	1.18	0.765	1.24	1.17	1.07	1.04	1.02	0.929	0.738	0.19	0.131	1.02	1.04	0.879	1.02	0.75	1.18
